This note sets out measurements from US11680056B2, “MK2 inhibitors and uses thereof” (Xinthera, Inc., priority 2021, dated 2023).

Where two headings read alike, the source gives them in different places.

The target in one assay is p38a/MK2 (Homo sapiens (Human), UniProt P49137+Q16539). The assay is described as follows: p38a/MK2 biochemical assay: activation of MK2 by p38, FITC-HSP27 peptide phosphorylation (IMAP FP). The settings on record: 10-point 1:3 dilution, 60 pM active p38a, 1 nM inactive MK2, 10 μM ATP, 2 h incubation.
Chain of p38a/MK2 (P49137 46-400): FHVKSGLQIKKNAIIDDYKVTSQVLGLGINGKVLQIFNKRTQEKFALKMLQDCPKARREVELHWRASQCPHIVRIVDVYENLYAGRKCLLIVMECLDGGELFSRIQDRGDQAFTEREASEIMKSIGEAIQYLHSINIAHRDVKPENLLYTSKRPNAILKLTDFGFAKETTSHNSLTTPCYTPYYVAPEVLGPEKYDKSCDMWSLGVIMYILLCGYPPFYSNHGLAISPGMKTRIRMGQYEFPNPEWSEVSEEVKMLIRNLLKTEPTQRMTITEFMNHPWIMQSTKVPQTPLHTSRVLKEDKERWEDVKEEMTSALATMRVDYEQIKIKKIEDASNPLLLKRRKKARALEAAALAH
Chain of p38a/MK2 (Q16539 whole entry): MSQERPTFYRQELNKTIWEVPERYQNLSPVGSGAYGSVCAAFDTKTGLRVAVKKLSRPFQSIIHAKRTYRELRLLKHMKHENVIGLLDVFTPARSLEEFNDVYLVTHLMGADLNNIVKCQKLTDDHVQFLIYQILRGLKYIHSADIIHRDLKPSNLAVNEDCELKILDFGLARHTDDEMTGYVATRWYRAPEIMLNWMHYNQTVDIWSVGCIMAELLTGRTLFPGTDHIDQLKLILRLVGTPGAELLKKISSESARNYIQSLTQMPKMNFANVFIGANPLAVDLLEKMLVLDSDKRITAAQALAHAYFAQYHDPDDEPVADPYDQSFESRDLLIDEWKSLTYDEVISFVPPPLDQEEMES
Another assay deals with p38a/PRAK (Homo sapiens (Human), UniProt Q16539). The assay is described as follows: p38a/PRAK biochemical assay: activation of PRAK by p38, FITC-HSP27 peptide phosphorylation (IMAP FP). The settings on record: 10-point 1:3 dilution, top dose 300 μM, 60 pM active p38a, 1 nM inactive PRAK, 10 μM ATP, 2 h incubation; for IC50: read-out: p38a/PRAK Enzyme pIC50 (converted). The method, boiled down: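 GST-tagged MK2 (F46–H400) and PRAK (M1–Q471), expressed in E. coli, activated by p38 and phosphorylate FITC-HSP27 peptide over 2 h with compound; readout by IMAP fluorescence polarisation (ex 485/em 528 nm). Ten-point 1:3 dilutions, top dose 1 μM for MK2 and 300 μM for PRAK. IC50 after vehicle normalisation; selectivity = IC50(PRAK)/IC50(MK2).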
Chain of p38a/PRAK (Q16539 whole entry): as above

Where [1] appears, read: top dose 10 μM, read-out: p38a/MK2 (10 μM) Enzyme pIC50 (converted).
The mark [2] stands for this setting: top dose 1 μM, read-out: p38a/MK2 (1 μM) Enzyme pIC50 (converted).

As to `COc1cnc(-c2ccnc(C(C)(C)O)n2)cc1-n1c(C)cc(OCc2ncc(F)cc2F)c(Cl)c1=O` (atropisomer, axis not shown) [Example 7, 3-chloro-4-[(3,5-difluoropyridin-2-yl)methoxy]-2′-[2-(2-hydroxypropan-2-yl)pyrimidin-4-yl]-5′-methoxy-6-methyl-[1,4′-bipyridin]-2-one], the IC50 is 501 nM at p38a/MK2 (setting [1]) and 63100 nM on p38a/PRAK.
Consider `Cc1cnc(-c2nc(C(C)(C)O)cs2)cc1-n1c(C)cc(OCc2ncc(F)cc2F)cc1=O` (atropisomer, axis not shown) [Example 8, 4-[(3,5-difluoropyridin-2-yl)methoxy]-2′-[4-(2-hydroxypropan-2-yl)-1,3-thiazol-2-yl]-5′,6-dimethyl-[1,4′-bipyridin]-2-one], for which the “p38a/MK2 (10 μM) Enzyme pIC50” value at p38a/MK2 (top dose 10 μM) is recorded as under 5.0. Further, at p38a/PRAK, the IC50 was over 316000 nM.
On to `Cc1cnc(-c2cccc([C@H](O)CO)n2)cc1-n1c(C)cc(OCc2ncc(F)cc2F)c(Cl)c1=O` (single isomer, unassigned) [Example 34C, rel-3-chloro-4-[(3,5-difluoropyridin-2-yl)methoxy]-2′-[6-(1,2-dihydroxyethyl)pyridin-2-yl]-5′,6-dimethyl-[1,4′-bipyridin]-2-one], for which the IC50 on p38a/MK2 (setting [1]) is 2000 nM; at p38a/PRAK, over 316000 nM.
Regarding `[2H]C([2H])(Oc1cc(C)n(-c2c(C)cnc(-c3ccnc(C(C)(C)CO)n3)c2F)c(=O)c1Cl)c1ncc(F)cc1F` (single isomer, unassigned) [Example 59A, rel-3-chloro-4-((3,5-difluoropyridin-2-yl)methoxy-d2)-3′-fluoro-2′-(2-(1-hydroxy-2-methylpropan-2-yl)pyrimidin-4-yl)-5′,6-dimethyl-2H-[1,4′-bipyridin]-2-one], the results for the IC50 at p38a/MK2 (setting [2]) and on p38a/PRAK were over 1000 nM and over 316000 nM, respectively.
Turning to `Cc1cnc(-c2ccc(F)c(C(C)(C)O)n2)cc1-n1c(C)cc(OCc2ncc(F)cc2F)c(Cl)c1=O` (single isomer, unassigned) [Example 24A, rel-3-chloro-4-[(3,5-difluoropyridin-2-yl)methoxy]-1-[5′-fluoro-6′-(2-hydroxypropan-2-yl)-5-methyl-[2,2′-bipyridin]-4-yl]-6-methylpyridin-2-one], the IC50 at p38a/MK2 (setting [2]) was 1.58 nM; on p38a/PRAK it was 6310 nM.
As for `Cc1cnc(-c2ccnc(C(C)(C)O)n2)cc1-n1c(C)cc(COc2ncc(F)cc2F)c(Cl)c1=O` (atropisomer, axis not shown) [Example 15, 3-chloro-4-{[(3,5-difluoropyridin-2-yl)oxy]methyl}-2′-[2-(2-hydroxypropan-2-yl)pyrimidin-4-yl]-5′,6-dimethyl-[1,4′-bipyridin]-2-one], the “p38a/MK2 (10 μM) Enzyme pIC50” value at p38a/MK2 (top dose 10 μM) turned out to be 5.4. For the same compound, the IC50 on p38a/PRAK was 158000 nM.
Turning to `Cc1cnc(-c2ccnc(C(C)(C)O)c2)cc1-n1c(C)cc(OCc2ncc(F)cc2F)c(Cl)c1=O` (single isomer, unassigned) [Example 38A, rel-3-chloro-4-[(3,5-difluoropyridin-2-yl)methoxy]-2′-[2-(2-hydroxypropan-2-yl)pyridin-4-yl]-5′,6-dimethyl-[1,4′-bipyridin]-2-one], the IC50 is 100 nM at p38a/MK2 (setting [2]) and 31600 nM on p38a/PRAK.
On the same counts, the results for `[2H]C([2H])(Oc1cc(C)n(-c2c(C)cnc(-c3ccnc(CC4(O)CC4)n3)c2F)c(=O)c1Cl)c1ncc(F)cc1F` (single isomer, unassigned) [Example 61B, rel-3-chloro-4-((3,5-difluoropyridin-2-yl)methoxy-d2)-3′-fluoro-2′-(2-((1-hydroxycyclopropyl)methyl)pyrimidin-4-yl)-5′,6-dimethyl-2H-[1,4′-bipyridin]-2-one] are 3.16 nM and 631 nM.
`Cc1cnc(-c2ccnc(C(O)C3CC3)n2)cc1-n1c(C)cc(OCc2ncc(F)cc2F)c(Cl)c1=O` (single isomer, unassigned) [Example 35C, rel-3-chloro-2′-{2-[cyclopropyl(hydroxy)methyl]pyrimidin-4-yl}-4-[(3,5-difluoropyridin-2-yl)methoxy]-5′,6-dimethyl-[1,4′-bipyridin]-2-one]: the values for the IC50 at p38a/MK2 (setting [2]) and on p38a/PRAK were over 1000 nM and over 316000 nM, respectively.
Consider `[2H]C([2H])(Oc1cc(C)n(-c2c(C)cnc(-c3ccnc(C(C)(C)O)n3)c2F)c(=O)c1Cl)c1ncc(F)cc1F` (single isomer, unassigned) [Example 57B, rel-3-chloro-4-[(3,5-difluoropyridin-2-yl)(2H2)methoxy]-3′-fluoro-2′-[2-(2-hydroxypropan-2-yl)pyrimidin-4-yl]-5′,6-dimethyl-[1,4′-bipyridin]-2-one], for which the IC50 on p38a/MK2 (setting [2]) is over 10 nM; at p38a/PRAK it was 126000 nM.
As for `Cc1cnc(-c2ccnc([C@@](C)(O)C3CC3)n2)cc1-n1c(C)cc(OCc2ncc(F)cc2F)c(Cl)c1=O` (single isomer, unassigned) [Example 6A, rel-3-chloro-2′-[2-(1-cyclopropyl-1-hydroxyethyl)pyrimidin-4-yl]-4-[(3,5-difluoropyridin-2-yl)methoxy]-5′,6-dimethyl-[1,4′-bipyridin]-2-one], the IC50 was 25.1 nM at p38a/MK2 (setting [1]) and 10000 nM on p38a/PRAK.
Regarding `Cc1cnc(-c2cccc([C@@](C)(O)CO)n2)cc1-n1c(C)cc(OCc2ncc(F)cc2F)c(Cl)c1=O` (stereo in doubt) [Example 36A, rel-3-chloro-4-[(3,5-difluoropyridin-2-yl)methoxy]-2′-[6-(1,2-dihydroxypropan-2-yl)pyridin-2-yl]-5′,6-dimethyl-[1,4′-bipyridin]-2-one], the “p38a/MK2 (1 μM) Enzyme pIC50” value on p38a/MK2 (top dose 1 μM) came out at 8.3. The “p38a/PRAK Enzyme pIC50” value on p38a/PRAK is recorded as 5.3.
As for `CCc1cnc(-c2ccnc(C(C)(C)O)n2)cc1-n1c(C)cc(OCc2ncc(F)cc2F)c(Cl)c1=O` (single isomer, unassigned) [Example 29B, rel-3-chloro-4-((3,5-difluoropyridin-2-yl)methoxy)-5′-ethyl-2′-(2-(2-hydroxypropan-2-yl)pyrimidin-4-yl)-6-methyl-2H-[1,4′-bipyridin]-2-one], the IC50 at p38a/MK2 (setting [1]) is over 10000 nM; at p38a/PRAK it was over 316000 nM.
On the same counts, the results for `Cc1cnc(-c2ccnc(C3(O)CC3)n2)cc1-n1c(C)cc(OCc2ncc(F)cc2F)c(Cl)c1=O` (single isomer, unassigned) [Example 3B, rel-3-chloro-4-[(3,5-difluoropyridin-2-yl)methoxy]-2′-[2-(1-hydroxycyclopropyl)pyrimidin-4-yl]-5′,6-dimethyl-[1,4′-bipyridin]-2-one] are over 10000 nM and over 316000 nM.
Take `Cc1ncc(-c2ccnc(C(C)(C)O)n2)cc1-n1c(C)cc(OCc2ncc(F)cc2F)c(Cl)c1=O` (single isomer, unassigned) [Example 45B, rel-3-chloro-4-[(3,5-difluoropyridin-2-yl)methoxy]-5′-[2-(2-hydroxypropan-2-yl)pyrimidin-4-yl]-2′,6-dimethyl-[1,3′-bipyridin]-2-one]: the IC50 was 501 nM on p38a/MK2 (setting [2]) and 39800 nM on p38a/PRAK.
Taken in the same sequence, the figures for `Cc1cnc(-n2ccc(C(=O)NC3CC3)n2)cc1-n1c(C)cc(OCc2ncc(F)cc2F)c(Cl)c1=O` [Example 44A, rel-1-{3-chloro-4-[(3,5-difluoropyridin-2-yl)methoxy]-5′,6-dimethyl-2-oxo-[1,4′-bipyridin]-2′-yl}-N-cyclopropylpyrazole-3-carboxamide] were 25.1 nM and 6310 nM.
Taken in the same sequence, the figures for `Cc1cnc(-c2ccnc(C(C)(C)O)n2)c(C)c1-n1c(C)cc(OCc2ncc(F)cc2F)c(Cl)c1=O` (single isomer, unassigned) [Example 49A, rel-3-chloro-4-((3,5-difluoropyridin-2-yl)methoxy)-2′-(2-(2-hydroxypropan-2-yl)pyrimidin-4-yl)-3′,5′,6-trimethyl-2H-[1,4′-bipyridin]-2-one] were 6.31 nM and 3160 nM.
For `Cc1cnc(-n2ccc(C(C)(C)O)n2)cc1-n1c(C)cc(OCc2ncc(F)cc2Cl)c(Cl)c1=O` (single isomer, unassigned) [Example 47A, rel-3-chloro-4-[(3-chloro-5-fluoropyridin-2-yl)methoxy]-2′-[3-(2-hydroxypropan-2-yl)pyrazol-1-yl]-5′,6-dimethyl-[1,4′-bipyridin]-2-one], the IC50 is 2 nM at p38a/MK2 (setting [2]) and 5010 nM on p38a/PRAK.
Taken in the same sequence, the figures for `Cc1cnc(-n2ccc(C(C)(C)O)n2)c(F)c1-n1c(C)cc(OCc2ncc(F)cc2F)c(Cl)c1=O` (single isomer, unassigned) [Example 54B, rel-3-chloro-4-((3,5-difluoropyridin-2-yl)methoxy)-3′-fluoro-2′-(3-(2-hydroxypropan-2-yl)-1H-pyrazol-1-yl)-5′,6-dimethyl-2H-[1,4′-bipyridin]-2-one] were 0.631 nM and 1580 nM.
Taken in the same sequence, the figures for `Cc1cnc(-c2cccc(C(C)(O)CO)n2)cc1-n1c(C)cc(OCc2ncc(F)cc2F)c(Cl)c1=O` (single isomer, unassigned) [Example 36C, rel-3-chloro-4-[(3,5-difluoropyridin-2-yl)methoxy]-2′-[6-(1,2-dihydroxypropan-2-yl)pyridin-2-yl]-5′,6-dimethyl-[1,4′-bipyridin]-2-one] were over 1000 nM and over 316000 nM.
